Measurements reported in PMC5645029 (Journal of medicinal chemistry, 2017).
“Also recorded” adds a separate entry of the source. Non-standard residues stand in square brackets, D forms with d. Residues, ends and D or L forms follow the SMILES beside them.

How the values were obtained:
[1] = target: T1, mMC4R (Mus musculus, UniProt P56450); conditions: for fold less potent at the MC4R compared to 1: antagonist potency relative to 1
[2] = target: T2, mMC3R (Mus musculus, UniProt P33033); experiment: AlphaScreen cAMP assay, antagonist activity; conditions: Schild paradigm, NDP-MSH
[3] = target: T3, mMC5R (Mus musculus, UniProt P41149); experiment: cell-based
[4] = target: mMC1R (Mus musculus, UniProt Q01727); experiment: AlphaScreen cAMP assay, agonist activity; conditions: up to 100 μM concentrations
[5] = target: T2, mMC3R; experiment: AlphaScreen cAMP assay, agonist activity; conditions: up to 100 μM concentrations
[6] = target: T1, mMC4R; experiment: AlphaScreen cAMP assay, agonist activity; conditions: up to 100 μM concentrations
[7] = target: T3, mMC5R
[8] = target: mouse melanocortin-5 receptor (mouse) (UniProt P41149)
[9] = target: mouse melanocortin-4 receptor (mouse) (UniProt P56450)
[10] = target: mouse melanocortin-3 receptor (mouse) (UniProt P33033)
Chain of mouse melanocortin-3 receptor (mouse) (P33033 whole entry): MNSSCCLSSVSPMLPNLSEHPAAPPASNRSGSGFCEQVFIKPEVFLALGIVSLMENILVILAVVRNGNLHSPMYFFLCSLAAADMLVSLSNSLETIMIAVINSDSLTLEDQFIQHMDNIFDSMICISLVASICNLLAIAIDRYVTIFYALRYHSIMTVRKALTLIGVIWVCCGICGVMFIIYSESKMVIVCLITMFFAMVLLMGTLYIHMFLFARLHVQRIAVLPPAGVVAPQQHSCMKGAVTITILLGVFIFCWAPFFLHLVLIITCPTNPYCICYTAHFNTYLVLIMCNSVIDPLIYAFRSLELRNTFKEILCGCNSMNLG

Chain of mMC1R (Q01727 whole entry): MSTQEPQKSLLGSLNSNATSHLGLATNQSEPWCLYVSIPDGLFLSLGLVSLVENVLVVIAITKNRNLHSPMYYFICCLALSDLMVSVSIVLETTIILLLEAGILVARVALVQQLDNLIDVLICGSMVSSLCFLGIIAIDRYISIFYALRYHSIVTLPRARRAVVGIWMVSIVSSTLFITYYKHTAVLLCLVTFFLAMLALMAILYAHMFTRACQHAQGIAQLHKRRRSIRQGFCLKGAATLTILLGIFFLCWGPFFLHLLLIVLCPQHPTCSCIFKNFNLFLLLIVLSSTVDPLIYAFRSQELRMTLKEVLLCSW
T3 sequence (P41149 whole entry): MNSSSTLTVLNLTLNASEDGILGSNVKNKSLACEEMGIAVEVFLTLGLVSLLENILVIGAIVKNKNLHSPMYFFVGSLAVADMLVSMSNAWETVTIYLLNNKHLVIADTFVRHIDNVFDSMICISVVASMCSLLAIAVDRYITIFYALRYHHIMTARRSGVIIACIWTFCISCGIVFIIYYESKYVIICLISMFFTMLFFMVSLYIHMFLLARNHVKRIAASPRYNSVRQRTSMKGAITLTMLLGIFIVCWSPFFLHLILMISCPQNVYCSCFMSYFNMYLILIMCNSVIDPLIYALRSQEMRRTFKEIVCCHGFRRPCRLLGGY
T2 sequence (P33033 whole entry): as the sequence (P33033 whole entry) above
T1 sequence (P56450 whole entry): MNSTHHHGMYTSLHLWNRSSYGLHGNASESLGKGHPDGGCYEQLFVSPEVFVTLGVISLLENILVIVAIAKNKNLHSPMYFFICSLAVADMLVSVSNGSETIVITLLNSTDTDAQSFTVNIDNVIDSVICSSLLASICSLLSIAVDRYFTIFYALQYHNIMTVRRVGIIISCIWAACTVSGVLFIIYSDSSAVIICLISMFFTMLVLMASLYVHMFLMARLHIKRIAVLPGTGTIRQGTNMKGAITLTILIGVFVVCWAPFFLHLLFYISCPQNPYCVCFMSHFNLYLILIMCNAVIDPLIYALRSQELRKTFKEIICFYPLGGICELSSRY
Chain of mouse melanocortin-5 receptor (mouse) (P41149 whole entry): as the sequence (P41149 whole entry) above
Chain of mouse melanocortin-4 receptor (mouse) (P56450 whole entry): as the sequence (P56450 whole entry) above

| Molecule | fold less potent at the MC4R compared to 1 [1] | EC50 [3] [nM] | agonist activity at the MC3R (in words) [5] | agonist activity at the MC4R (in words) [6] | antagonist activity at the MC3R (in words) [2] | further results |
| --- | --- | --- | --- | --- | --- | --- |
| C[C@@H]1NC(=O)[C@H](C)NC(=O)[C@H](Cc2ccccc2)NC(=O)[C@H](Cc2ccccc2)NC(=O)[C@H](CCCNC(=N)N)NC(=O)[C@@H]2CCCN2C(=O)[C@H]2CCCN2C(=O)[C@H](Cc2ccccc2)NC1=O [Peptide 3, c[Pro-Arg-Phe-Phe-Ala-Ala-Phe-DPro]] | 8 fold | 250 |  |  | did not possess antagonist activity |  |
| CC[C@@H]1NC(=O)[C@H](Cc2ccccc2)NC(=O)[C@H](Cc2ccccc2)NC(=O)[C@H](CCCNC(=N)N)NC(=O)[C@@H]2CCCN2C(=O)[C@H]2CCCN2C(=O)[C@H](Cc2ccccc2)NC(=O)[C@H](C)NC1=O [Peptide 4, c[Pro-Arg-Phe-Phe-Abu-Ala-Phe-DPro]] |  | 160 |  |  | did not possess antagonist activity |  |
| C[C@@H]1NC(=O)[C@H]([C@@H](C)O)NC(=O)[C@H](Cc2ccccc2)NC(=O)[C@H](Cc2ccccc2)NC(=O)[C@H](CCCNC(=N)N)NC(=O)[C@@H]2CCCN2C(=O)[C@H]2CCCN2C(=O)[C@H](Cc2ccccc2)NC1=O [Peptide 6, c[Pro-Arg-Phe-Phe-Thr-Ala-Phe-DPro]] (cyclo(RFFTAF[dP]P)) |  | 50 | No agonist activity | No agonist activity |  | fold more potent at the MC4R compared to 13 ([1]; antagonist potency relative to 13): 70 fold; agonist activity at the MC1R (in words) [4]: No agonist activity |
| CCCC[C@@H]1NC(=O)[C@H](Cc2ccccc2)NC(=O)[C@H](Cc2ccccc2)NC(=O)[C@H](CCCNC(=N)N)NC(=O)[C@@H]2CCCN2C(=O)[C@H]2CCCN2C(=O)[C@H](Cc2ccccc2)NC(=O)[C@H](C)NC1=O [Peptide 11, c[Pro-Arg-Phe-Phe-Nle-Ala-Phe-DPro]] | at least 8 fold |  |  |  |  | activity at the MC5R (in words) [7]: no activity |
| CC(C)[C@@H]1NC(=O)[C@H](Cc2ccccc2)NC(=O)[C@H](Cc2ccccc2)NC(=O)[C@H](CCCNC(=N)N)NC(=O)[C@@H]2CCCN2C(=O)[C@H]2CCCN2C(=O)[C@H](Cc2ccccc2)NC(=O)[C@H](C)NC1=O [Peptide 13, c[Pro-Arg-Phe-Phe-Val-Ala-Phe-DPro]] | at least 8 fold | 510 |  |  |  |  |
| N=C(N)NCCC[C@@H]1NC(=O)[C@@H]2CCCN2C(=O)[C@H]2CCCN2C(=O)[C@H](Cc2ccccc2)NC(=O)[C@H](CC(=O)O)NC(=O)[C@H](CC(N)=O)NC(=O)[C@H](Cc2ccccc2)NC(=O)[C@H](Cc2ccccc2)NC1=O [Peptide 16, c[Pro-Arg-Phe-Phe-Asn-Asp-Phe-DPro]] (cyclo(RFFNDF[dP]P)) |  |  | did not result in observable agonist or antagonist activity | did not result in observable agonist or antagonist activity | did not result in observable agonist or antagonist activity; also recorded: did not possess antagonist activity |  |
| N=C(N)NCCC[C@@H]1NC(=O)[C@@H]2CCCN2C(=O)[C@H]2CCCN2C(=O)[C@H](Cc2ccccc2)NC(=O)[C@H](CCC(=O)O)NC(=O)[C@H](CC(N)=O)NC(=O)[C@H](Cc2ccccc2)NC(=O)[C@H](Cc2ccccc2)NC1=O [Peptide 17, c[Pro-Arg-Phe-Phe-Asn-Glu-Phe-DPro]] (cyclo(RFFNEF[dP]P)) |  |  | did not result in observable agonist or antagonist activity | did not result in observable agonist or antagonist activity | did not result in observable agonist or antagonist activity; also recorded: did not possess antagonist activity | activity at the MC5R (in words) [7]: no activity |
| CC(C)C[C@@H]1NC(=O)[C@H](CC(N)=O)NC(=O)[C@H](Cc2ccccc2)NC(=O)[C@H](Cc2ccccc2)NC(=O)[C@H](CCCNC(=N)N)NC(=O)[C@@H]2CCCN2C(=O)[C@H]2CCCN2C(=O)[C@H](Cc2ccccc2)NC1=O [Peptide 22, c[Pro-Arg-Phe-Phe-Asn-Leu-Phe-DPro]] |  |  |  |  |  | activity at the MC5R (in words) [7]: no activity |
| cyclo(PRFFNLF[dP]) (SMILES CC(C)C[C@@H]1NC(=O)[C@H](CC(N)=O)NC(=O)[C@H](Cc2ccccc2)NC(=O)[C@H](Cc2ccccc2)NC(=O)[C@H](CCCNC(=N)N)NC(=O)[C@@H]2CCCN2C(=O)[C@H]2CCCN2C(=O)[C@H](Cc2ccccc2)NC1=O) [c[Pro-Arg-Phe-Phe-Asn-Leu-Phe-DPro]] |  |  |  |  |  | agonist EC50 (cAMP AlphaScreen, HEK293 cells stably expressing the receptor) [8]: > 100 µM |
| cyclo(PRFFNEF[dP]) (SMILES N=C(N)NCCC[C@@H]1NC(=O)[C@@H]2CCCN2C(=O)[C@H]2CCCN2C(=O)[C@H](Cc2ccccc2)NC(=O)[C@H](CCC(=O)O)NC(=O)[C@H](CC(N)=O)NC(=O)[C@H](Cc2ccccc2)NC(=O)[C@H](Cc2ccccc2)NC1=O) [c[Pro-Arg-Phe-Phe-Asn-Glu-Phe-DPro]] |  |  |  |  |  | agonist EC50 (cAMP AlphaScreen, HEK293 cells stably expressing the receptor) [8]: > 100 µM; agonist EC50 (cAMP AlphaScreen, HEK293 cells stably expressing the receptor) [9]: > 100 µM; agonist EC50 (cAMP AlphaScreen, HEK293 cells stably expressing the receptor) [10]: > 100 µM |

Second part, led by results:

| fold less potent at the MC4R compared to 1 [1] | EC50 [3] [nM] | agonist activity at the MC3R (in words) [5] | agonist activity at the MC4R (in words) [6] | Molecule | antagonist activity at the MC3R (in words) [2] | further results |
| --- | --- | --- | --- | --- | --- | --- |
|  |  | no agonist activity | no agonist activity | C[C@@H]1NC(=O)[C@H](CC(=O)O)NC(=O)[C@H](Cc2ccccc2)NC(=O)[C@H](Cc2ccccc2)NC(=O)[C@H](CCCNC(=N)N)NC(=O)[C@@H]2CCCN2C(=O)[C@H]2CCCN2C(=O)[C@H](Cc2ccccc2)NC1=O [Peptide 7, c[Pro-Arg-Phe-Phe-Asp-Ala-Phe-DPro]] | did not possess antagonist activity | agonist activity at the MC1R (in words) [4]: no agonist activity |
| 16 fold | 700 | did not result in measurable activity |  | C[C@@H]1NC(=O)[C@H](CCC(=O)O)NC(=O)[C@H](Cc2ccccc2)NC(=O)[C@H](Cc2ccccc2)NC(=O)[C@H](CCCNC(=N)N)NC(=O)[C@@H]2CCCN2C(=O)[C@H]2CCCN2C(=O)[C@H](Cc2ccccc2)NC1=O [Peptide 8, c[Pro-Arg-Phe-Phe-Glu-Ala-Phe-DPro]] | did not result in measurable activity |  |
|  | 10 | no agonist activity | no agonist activity | C[C@@H]1NC(=O)[C@H](Cc2c[nH]cn2)NC(=O)[C@H](Cc2ccccc2)NC(=O)[C@H](Cc2ccccc2)NC(=O)[C@H](CCCNC(=N)N)NC(=O)[C@@H]2CCCN2C(=O)[C@H]2CCCN2C(=O)[C@H](Cc2ccccc2)NC1=O [Peptide 10, c[Pro-Arg-Phe-Phe-His-Ala-Phe-DPro]] |  | agonist activity at the MC1R (in words) [4]: no agonist activity; mMC5R inverse agonist, percent decrease from basal [7]: 10% |
| at least 8 fold | 110 |  |  | CC(C)C[C@@H]1NC(=O)[C@H](Cc2ccccc2)NC(=O)[C@H](Cc2ccccc2)NC(=O)[C@H](CCCNC(=N)N)NC(=O)[C@@H]2CCCN2C(=O)[C@H]2CCCN2C(=O)[C@H](Cc2ccccc2)NC(=O)[C@H](C)NC1=O [Peptide 12, c[Pro-Arg-Phe-Phe-Leu-Ala-Phe-DPro]] (cyclo(RFFLAF[dP]P)) |  |  |
